The values below come from paper PMC6733874, “Zebrafish behavioural profiling identifies GABA and serotonin receptor ligands related to sedation and paradoxical excitation” (Nature Communications, 2019).

The subject of the first test is human GABAARs (α1β2 and α1β2γ2). It is filed as cell-based. The settings on record: compound at 20 uM then 5 uM GABA; DMSO = 1. The text has this:
To determine if these compounds targeted human GABAARs, we tested them in a fluorescent imaging plate reader (FLIPR) assay on HEK293 cells transfected with α1β2 and α1β2γ2 human GABAAR subtypes. […]. […] While some of the compounds appeared to function in this assay as negative allosteric modulators (NAMs), reductions in fluorescence were likely due to toxicity-induced cell loss (Fig. 2f, Supplementary Table 5).
We used the FLIPR system (Molecular Devices) to quantify GABA-evoked activity of human GABAARs. We chose a membrane potential dye (Molecular Devices) to measure changes in membrane potentials and stably transfected HEK293 cells that expressed α1, β2 and γ2. Since we observed an increase in GABA-evoked responses when transfected with γ2 transiently, we describe the cells as having a low level of γ-subunit expression, indicating heterogeneity of GABAAR compositions in the cell (α1β2 or α1β2γ2). To assay for direct agonists, fluorescence was subtracted pre- and post compound addition. To assay for PAMs, cells were treated with compound at 20 uM and then with 5 uM GABA.
With `CCOC(=O)c1c(N)sc2ccccc12` [compound 5142031], the “Ave Norm FLIPR Score” value was determined as 5.237.
Same read-out and setting: next, `Clc1ccc(CSc2nc3ccccc3[nH]2)cc1` [compound 5551268]: -1.463.
Consider `CC(=O)c1c(C)nc2n(Cc3ccccc3)c3ccccc3n12` [compound 5573728], for which the “Ave Norm FLIPR Score” value is 27.62.
For the compound `O=C(Nc1c(C(=O)Nc2ccc(Cl)cc2)cnn1-c1ccccc1)c1ccco1` [compound 5583877], the “Ave Norm FLIPR Score” value is 36.71.
The same measure, in the same setting: next, `O=C(Nc1c(C(=O)Nc2ccc(Cl)cc2)cnn1-c1ccccc1)c1ccccc1F` [compound 5587256]: -26.37; `CCC(=O)c1c(C)nc2n(Cc3ccccc3)c3ccccc3n12` [compound 5649824]: 41.41.
Same read-out and setting: next, `COC(=O)c1sc(NC(=O)C2CCCO2)c(C(=O)OC)c1C` (stereo not drawn) [compound 5690842]: 12.09; `CCOC(=O)Nc1sc(C)c(CC)c1C(=O)OCC` [compound 5695025]: 32.27.

Staying with this test, now noted: compound at 20 uM then 5 uM GABA; Positive/Negative.
Regarding `CCOC(=O)c1c(N)sc2ccccc12` [compound 5142031], the “FLIPR Results” value is listed as “Positive”.
The same measure, in the same setting: next, `CC(=O)c1c(C)nc2n(Cc3ccccc3)c3ccccc3n12` [compound 5573728]: “Positive”.
As to `O=C(Nc1c(C(=O)Nc2ccc(Cl)cc2)cnn1-c1ccccc1)c1ccco1` [compound 5583877], the “FLIPR Results” value was “Positive”.
The same measure, in the same setting: next, `CCC(=O)c1c(C)nc2n(Cc3ccccc3)c3ccccc3n12` [compound 5649824]: “Positive”.
Regarding `COC(=O)c1sc(NC(=O)C2CCCO2)c(C(=O)OC)c1C` (stereo not drawn) [compound 5690842], the “FLIPR Results” value is listed as “Positive”.
On the same count and under the same terms, next, `CCOC(=O)Nc1sc(C)c(CC)c1C(=O)OCC` [compound 5695025]: “Positive”.

Another test deals with zebrafish. It is filed as in vivo. The settings on record: average phenoscore at highest scoring treatment.
Turning to `C[C@]12CC[C@@H](O)C[C@H]1CC[C@@H]1[C@@H]2CC[C@]2(C)[C@@H](C(=O)CO)CC[C@@H]12` [THDOC, tetrahydrodeoxycorticosterone], the phenoscore category entry was “intermediate (intermediate phenoscores (0.51 < x < 0.71))”.

The same test, now with this note: co-treatment; in words.
Turning to `CCc1[nH]c2ccc(OC)cc2c1CCN(C)C.O=C(O)C(=O)O` [EMDT oxalate], the “effect on eASRs caused by HTR6 antagonists” value is on record as “did not suppress eASRs”.

The same test, now with this note: dutasteride 3.0 μM + progesterone 2.5 μM.
For the compound `C[C@]12C=CC(=O)N[C@@H]1CC[C@@H]1[C@@H]2CC[C@]2(C)[C@@H](C(=O)Nc3cc(C(F)(F)F)ccc3C(F)(F)F)CC[C@@H]12` [dutasteride], the “effect on progesterone's etomidate-like phenotype” value is listed as “suppressed”.

Staying with this test, now noted: larvae; low-volume acoustic stimulus.
Turning to `CCN(Cc1ccccc1)C(=O)Cn1c(=O)n(C)c2cnc(-c3ccccc3)nc21` [AC 5216], the “enhanced acoustic startle response (eASR) phenotype, in words” value (“enhanced acoustic startle response” for short) is reported as “caused eASRs in vivo”.
In the case of `O=C(Nc1c(-c2cccs2)nc2ccccn12)c1ccc(Cl)cc1` [DS2], the “enhanced acoustic startle response” value is “did not cause eASRs”.
Still for that read-out and setting: next, `Cc1cccc(C#Cc2ccccc2)n1` [MPEP]: “reproducibly caused eASRs”; `CCC(C)N(C)C(=O)c1cc2ccccc2c(-c2ccccc2Cl)n1` (stereo not drawn) [PK 11195]: “caused eASRs in vivo”; `Oc1noc2c1CCNC2` [THIP, gaboxadol]: “did not cause eASRs”.
On to `COc1ccccc1N1CCN(C(=O)COc2ccc(Cl)cc2Br)CC1` [compound 5801496], for which the “enhanced acoustic startle response” value was “did not cause eASRs in vivo”.
For `Fc1ccc2c(CCNCc3cccc(OCC(F)(F)C(F)F)c3)c[nH]c2c1` [idalopirdine], the “enhanced acoustic startle response” value is “reproducibly caused eASRs in vivo”.
On the same count and under the same terms, next, `FC(F)OC(Cl)C(F)(F)F` (stereo not drawn) [isoflurane]: “not all anesthetics caused eASR behaviors”; `O=C(c1ccccn1)c1cnn2c(-c3ccncc3)ccnc12` [ocinaplon]: “produced a behavioral profile that resembled the negative”; `CCOC(=O)c1cccc(N)c1` [tricaine]: “not all anesthetics caused eASR behaviors”.

The test is the same for the next values; noted with them: zebrafish, in vivo.
In turn, `CCCN(CCC)C1CCc2cccc(O)c2C1` (stereo not drawn) [8-HYDROXY-DPAT] returned a Phenoscore of 0.49.
The same measure, in the same setting: next, `NCCc1c[nH]c2c(O)cc(O)cc12` [57-DIHYDROXYTRYPTAMINE]: 0.05; `CC(N)Cc1c[nH]c2ccc(OCc3cccs3)cc12` (stereo not drawn) [BW 723C86]: 0.1.
On the same count and under the same terms, next, `Cc1c(OCc2cccc(-c3ccc(C(=O)O)cc3)c2)cc2c(c1C)C(=O)C(C1CCCC1)C2` (stereo not drawn) [Biphenylindanone A]: 0.11; `CCc1c(C(=O)OC)ncc2[nH]c3cc(OC)c(OC)cc3c12` [DMCM]: 0.54.
For the compound `COc1cc(CC(C)N)c(OC)cc1I.Cl` (stereo not drawn) [DOI HYDROCHLORIDE], the Phenoscore is 0.1.
For the compound `Cc1[nH]c2ccc(Cl)cc2c1C1=CCNCC1.Cl` [EMD 386088 HYDROCHLORIDE], the Phenoscore came to 0.15.
Same read-out and setting: next, `CN1CC(=O)NC1=NC(=O)Nc1cccc(Cl)c1` [Fenobam]: 0.3; `NCCCC(=O)O` [GABA]: 0.21; `CN(C)CCCc1cc(C(=O)Nc2ccc(-c3ccncc3)cc2)ccc1O.Cl.Cl` [GR 55562 DIHYDROCHLORIDE]: 0.24.
With `O=C(Nc1cnc(Cl)nc1)c1ccc(F)c(F)c1` [ICA-069673], the “eASR magnitudes in animals treated with M-current ligands” value (“eASR magnitudes in animals treated” for short) was “significantly decreased”.
Turning to `CCOC(=O)c1ncn2c1[C@@H]1CCCN1C(=O)c1cc(OC)ccc1-2` [L-655,708], the Phenoscore is recorded as 0.51.
Compound `NC(CCP(=O)(O)O)C(=O)O` [L-AP4] registered a Phenoscore of 0.1.
Still for that read-out and setting: next, `CSc1ccc2c(c1)C(N1CCN(C)CC1)Cc1ccccc1S2` (stereo not drawn) [METHIOTHEPIN]: 0.33; `Cc1cccc(C#Cc2ccccc2)n1` [MPEP]: 0.73; `COc1ccc2c(c1)c(CCN(C)C)cn2S(=O)(=O)c1ccccc1.O=C(O)C(=O)O` [MS 245 OXALATE]: 0.09.
On the same count and under the same terms, next, `Cc1nccn1CC1CCc2c(c3ccccc3n2C)C1=O.Cl` (stereo not drawn) [Ondansetron Hydrochloride]: 0.13.
`O=C(O)/C=C\C(=O)O.c1ccc2nc(N3CCNCC3)ccc2c1` [Quipazine maleate salt] displayed a Phenoscore of 0.16.
For `NC[C@H](CC(=O)O)c1ccc(Cl)cc1` [R-Baclofen], the Phenoscore is given as 0.26.
Consider `CNc1cc(NS(=O)(=O)c2ccc(N)cc2)nc(NC)n1` [Ro 04-6790], for which the Phenoscore stood at 0.11.
In turn, `COc1ccc(S(=O)(=O)Nc2cc(Cl)cc(Cl)c2OC)cc1N1CCNCC1.Cl` [SB 399885 hydrochloride] yielded a Phenoscore of 0.16.
In the case of `COc1ccc(NC(=O)c2ccc(-c3ccc(-c4noc(C)n4)cc3C)cc2)cc1OCCN(C)C` [SB-216641], the Phenoscore amounted to 0.11.
Still for that read-out and setting: next, `O=C(N/N=C/c1ccccc1O)c1ccccc1O` [SCS]: 0.04; `CCN(CC)CCOC(=O)c1cc(Cl)c(N)cc1OC` [SDZ-205557]: 0.07.
`Br.COc1ccc(-c2ccc(=N)n(CCCC(=O)O)n2)cc1` [SR-95531]: the Phenoscore is on record as 0.21.
On to `Cc1[nH]c2ccc(Cl)cc2c1CCN(C)C.O=C(O)C(=O)O` [ST 1936 OXALATE], for which the Phenoscore came out at 0.09.
`NC/C=C/C(=O)O` [TACA] showed a Phenoscore of 0.07.
Still for that read-out and setting: next, `CC1(C)CC(=O)c2c(SCCO)sc(-c3nccs3)c2C1` [TB 21007]: 0.12; `COc1cc(Br)c(OC)c2c1[C@H](CN)C2` [TCB-2]: 0.1.
Still for that read-out and setting: next, `N[C@@H](Cn1ccc(=O)n(Cc2ccccc2C(=O)O)c1=O)C(=O)O` [UBP 302]: 0.17.
Turning to `O=C([O-])[C@H]1CCCC[C@H]1C(=O)Nc1cc(Cl)cc(Cl)c1.[Na+]` [VU 0155041 Na Salt], the Phenoscore was determined as 0.11.
The compound `CN(C)CCn1cc(S(=O)(=O)c2cccc(F)c2)c2cccnc21` [WAY 208466] returned a Phenoscore of 0.21.
Consider `O=C1c2ccccc2C(Cc2ccncc2)(Cc2ccncc2)c2ccccc21` [XE-991], for which the “eASR magnitudes in animals treated” value is “significantly increased”.
`CN(C)C/C=C(\c1ccc(Br)cc1)c1cccnc1.Cl.Cl.O` [Zimelidine dihydrochloride monohydrate]: the Phenoscore is listed as 0.16.
In turn, `CC(N)Cc1c[nH]c2ccc(O)cc12` (stereo not drawn) [alpha-METHYLSEROTONIN] yielded a Phenoscore of 0.18.
On the same count and under the same terms, next, `CN1CCc2cc3c(cc2[C@H]1[C@@H]1OC(=O)c2c1ccc1c2OCO1)OCO3` [bicuculline (+)]: 0.23; `CN1CCc2cc3c(cc2[C@H]1[C@@H]1OC(=O)c2c1ccc1c2OCO1)OCO3` [bicuculline (-)]: 0.05; `COc1ccccc1N1CCN(C(=O)c2ccc(C(=O)c3c(C)cc(C)cc3C)cc2)CC1` [compound 5352629]: 0.48.
In the case of `CCOC(=O)c1c(C)n(Cc2ccco2)c2ccc(OC)cc12` [compound 5943451], the Phenoscore was found to be 0.37.
`O=C(Nc1ccc(Cl)c(Cl)c1)c1ccc(Cl)cc1Cl` [compound 7136301] displayed a Phenoscore of 0.42.
As for `Cc1cccc([C@H](C)c2cnc[nH]2)c1C` [dexmedetomidine], the “enhanced acoustic startle response” value is recorded as “not all anesthetics caused eASR behaviors”.
Take `CCOC(=O)Nc1ccc(NCc2ccc(F)cc2)nc1N` [flupirtine]: the “eASR magnitudes in animals treated” value is recorded as “significantly decreased”.
On the same count and under the same terms, next, `O=C1N(c2ccccc2)c2ccccc2C1(Cc1ccncc1)Cc1ccncc1` [linopirdine]: “significantly increased”; `O=C1CCCN1CC#CCN1CCCC1` [oxotremorine]: “significantly increased”.
`CCOC(=O)c1cc2c(cn1)[nH]c1ccccc12` [β-CCE]: the Phenoscore amounted to 0.37.
